This passage reports TGI results from PubChem BioAssay (NCI).

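Assay format: 96-well plates, 48-hour exposure. TGI denotes the concentration required for complete inhibition of growth.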

Test in all cases: NCI-60 cell line screen, 48 h
Assay [1] relates to RXF 393 renal.
Assay [2] has as its system HCC-2998 colon.
In assay [3] the test system is SNB-19 CNS.
Assay [4] relates to LOX IMVI melanoma.
The test system of assay [5] is K-562 leukemia.
Assay [6] concerns SF-268 CNS.
Assay [7] relates to HS 578T breast.
Assay [8] concerns HOP-62 NSCLC.
Assay [9] relates to MOLT-4 leukemia.
For assay [10], the system named is T-47D breast.
Assay [11] deals with U251 CNS.
In assay [12] the test system is SN12C renal.
The subject of assay [13] is SF-539 CNS.
The subject of assay [14] is HCT-116 colon.
In assay [15] the test system is NCI-H226 lung.
Assay [16] relates to DU-145 prostate.
The test system of assay [17] is NCI/ADR-RES ovarian.
In assay [18] the test system is PC-3 prostate.
Assay [19] deals with 786-0 renal.
In assay [20] the test system is SW-620 colon.

In the case of `O=C(Nc1ccc(Cl)cc1)c1cc(S(=O)(=O)NC2=NC(c3ccccc3)c3cc(Cl)ccc3N2)c(SSc2cc(Cl)c(C(=O)Nc3ccc(Cl)cc3)cc2S(=O)(=O)NC2=NC(c3ccccc3)c3cc(Cl)ccc3N2)cc1Cl` (configuration not stated), the TGI in [1], in [2], in assay [3], in assay [4], in [5] and in assay [6] was over 100 µM in each case. The TGI in assay [7] is over 100 µM; in assay [8] it was over 100 µM; in [9] it was over 61.6 µM; in assay [10] it was over 100 µM; in [11], over 100 µM; in [12] it was over 100 µM. The TGI in assay [13], in [14], in assay [15], in assay [16], in assay [17] and in [18] was over 100 µM in each case. The TGI in [19] and in assay [20] was over 100 µM throughout.

As to `COc1cc(C(=O)OC2CC(C)=CC[C@@]3(C)CC[C@](O)(C(C)C)C23)ccc1O` (some centres not stated), the TGI in assay [1] turned out to be 35.4 µM; in assay [2], 28.8 µM; in assay [3], 35.8 µM; in [4] it was 30.6 µM; in [5], 38.3 µM; in assay [6] it was 38.7 µM. The TGI in assay [7] was 40.9 µM; in assay [8], 32.4 µM; in assay [9] it was 40.6 µM; in [10], 47.6 µM; in assay [11], 67 µM; in assay [12] it was 37.2 µM. The TGI in assay [13] stood at 29.7 µM; in [14] it was 33.1 µM; in [15], 32.5 µM; in [16], 32.4 µM; in assay [17], 37.6 µM; in [18] it was 31.9 µM. Further, the figures for the TGI in assay [19] and in [20] were 31.3 µM and 55.3 µM, respectively.

As to `CCCCCCCCC[C@@H]1C[C@@H]2CCC3C(C(=O)OCCCCNC(=O)OCc4ccccc4)=C(C)NC(=N1)N32` (some centres not stated), the TGI was found to be 7.34 µM in assay [1]; 11.1 µM in assay [2]; 29.4 µM in assay [3]; 4.31 µM in assay [4]; 3.83 µM in [5]; 6.66 µM in assay [6]. The TGI in assay [7] was found to be 5.48 µM; in assay [8], 10.3 µM; in [9] it was 6.41 µM; in assay [10], 10.6 µM; in assay [11], 10.3 µM; in assay [12] it was 10.7 µM. Moreover, the TGI worked out at 14.4 µM in [13]; 10 µM in [14]; 11.6 µM in assay [15]; 21 µM in assay [16]; 7 µM in [17]; 7.32 µM in [18]. Further, the figures for the TGI in assay [19] and in assay [20] were 3.2 µM and 14.2 µM, respectively.

As to `Nc1ccc(S(=O)(=O)c2ccc(N=[N+]([O-])c3ccc(S(=O)(=O)c4ccc(N)cc4)cc3)cc2)cc1`, the TGI in [1] was 57.8 µM; in [2] it was over 100 µM; in assay [3], over 72.3 µM; in [4], over 100 µM; in assay [5], over 100 µM; in assay [6], over 45.9 µM. The TGI in [7] was over 74.7 µM; in assay [8], over 54.3 µM; in assay [9], over 100 µM; in assay [10], over 100 µM; in assay [11], over 57.3 µM; in assay [12], over 100 µM. The TGI in [13] is 58.1 µM; in assay [14], over 100 µM; in assay [15] it was 92.2 µM; in assay [16], over 100 µM; in [17], over 100 µM; in assay [18], over 100 µM. Moreover, the TGI in assay [19] was 60.3 µM; in assay [20] it was over 100 µM.

`CN1CCN(CCCCNc2cc3c4ccccc4c(NCCCCN4CCN(C)CC4)cc3c3ccccc23)CC1`: the TGI in assay [1] is 3.13 µM; in [2], 3.29 µM; in [3] it was 12.5 µM; in [4], 2.42 µM; in assay [5] it was 6.8 µM; in assay [6], 8.04 µM. In addition, the TGI was found to be 5.65 µM in assay [7]; 7.72 µM in [8]; 1.88 µM in [9]; 84.2 µM in [10]; 4.21 µM in assay [11]; 9.27 µM in [12]. Also, the TGI in assay [13] stood at 3.28 µM; in assay [14] it was 2.13 µM; in assay [15] it was 45.4 µM; in assay [16], 3.14 µM; in assay [17] it was 21.6 µM; in assay [18], 21.2 µM. The compound further showed a TGI in [19] of 3.48 µM.

For the compound `CC(=N\N=C\c1ccccn1)/C(C)=N/N=C/c1ccccn1`, the TGI in [1], in assay [2], in assay [3], in assay [4], in assay [6] and in assay [7] was over 100 µM throughout. Also, the TGI in assay [8], in assay [10], in assay [11], in assay [12], in [13] and in [14] was over 100 µM throughout. The TGI in [15], in [16], in assay [17], in assay [18], in [19] and in [20] was over 100 µM throughout.

`CCOC(=O)c1ccc2c(=O)n3c(C(=O)OCC)ccc3c(=O)n12`: the TGI in assay [1], in [2], in assay [3], in assay [4], in assay [5] and in assay [6] was over 100 µM each time. The TGI in [7], in assay [8], in [9], in assay [10], in assay [11] and in assay [12] was over 100 µM throughout. For the same compound, the TGI in assay [14], in assay [15], in assay [16], in [17], in assay [18] and in assay [19] was over 100 µM throughout. Besides, in assay [20], the TGI is over 100 µM.

For `CCCCCCCCCCOC1C(C(C)OCCCN(C)C)OC2OC3(CCCCC3)OC21` (configuration not stated), the TGI in assay [1] came to 31 µM; in assay [2], 29.3 µM; in assay [3], 25.5 µM; in [4], 10.7 µM; in assay [5] it was 12.6 µM; in assay [6] it was 30.5 µM. Further, the TGI in [7] is 35.8 µM; in assay [8] it was 31.4 µM; in [9], 30.6 µM; in assay [10], 35.7 µM; in assay [11], 28.4 µM; in assay [12], 30.3 µM. Moreover, the TGI came out at 26.4 µM in assay [14]; 38.1 µM in assay [15]; 31.2 µM in assay [16]; 32.2 µM in assay [17]; 25.2 µM in [18]; 30.9 µM in [19]. For the same compound, the TGI in assay [20] worked out at 27.1 µM.

For `CCOC(=O)C1CCCC1S(=O)(=O)c1ccc(C)cc1` (configuration not stated), the TGI in [1], in [2], in assay [3], in [4], in assay [5] and in assay [6] was over 100 µM throughout. Also, the TGI in assay [7], in [8], in assay [9], in [10], in assay [11] and in assay [12] was over 100 µM each time. The TGI in assay [14], in assay [15], in assay [16], in [17], in [18] and in assay [19] was over 100 µM each time. For the same compound, the TGI in assay [20] is over 100 µM.

Consider `C[N+](C)(N)Cc1csc(-c2ccc(Cl)cc2)n1`, for which the TGI in assay [1], in [2], in assay [3], in assay [4], in assay [5] and in [6] was over 100 µM in each case. The TGI in assay [7], in assay [8], in assay [10], in assay [11], in assay [12] and in [13] was over 100 µM each time. Further, the TGI in [14], in assay [15], in assay [16], in assay [17], in assay [18] and in [19] was over 100 µM throughout. This compound showed a TGI in assay [20] of over 100 µM.

As for `CCN(CC)CCNc1ccc2nnn3c4ccc(OC(C)=O)cc4c(=O)c1c23`, the TGI in assay [1] was 6.19 µM; in assay [2] it was 17.4 µM; in assay [3] it was over 43.2 µM; in [4], 6.83 µM; in [5], over 19.8 µM; in assay [6], 18.1 µM. The TGI in assay [7] turned out to be 19.1 µM; in assay [8] it was 12.5 µM; in assay [10], 31.1 µM; in [11], 15.5 µM; in assay [12], 15.8 µM; in assay [13], 9.47 µM. The TGI is over 37.5 µM in assay [14]; 7.62 µM in assay [15]; 15.1 µM in [16]; 19.1 µM in [17]; 17.3 µM in [18]; over 38.1 µM in [19]. This compound also showed a TGI in assay [20] of 13.6 µM.
